Measurements reported in patent US10253002B2, “Compounds and methods of treating infections” (Neoculi Pty Ltd., priority 2013, dated 2019).
≈ marks a conversion by molar mass, not a printed value. Where “and” joins values, the source holds several entries; their conditions need not be identical. Identical values can stand only once. Marks after values point to notes of the source that are not given here.

Tests used:
[1] = Bioassay ranking of the analogues tested; settings: M + R (MRSA and VRE combined)
Pseudomonas aeruginosa = assay: Broth microdilution MIC, Example 7 (NCL812 and analogues); assay type: cell-based; settings: 24 hours
Escherichia coli = assay: as above; assay type: cell-based; settings: 24 hours
MRSA = assay: as above; assay type: cell-based, Staphylococcus aureus; settings: for activity against MRSA among analogues: MIC testing, two MRSA strains; for MRSA / MIC: bioassay ranking, MRSA; for MIC: Staphylococcus aureus, read-out: MRSA
Method in brief: (§1)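 MICs in μg/ml were read as growth inhibition by eye, checked at 600 nm absorbance against drug-free wells, following CLSI broth microdilution. Strains: two MRSA, two VRE; duplicates, repeated once more when results diverged beyond one dilution step.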

VRE = assay: as above; assay type: cell-based, Enterococcus spp.; settings: for activity against VRE among analogues: MIC testing, two VRE strains; for VRE / MIC: bioassay ranking, VRE; for MIC: Enterococcus, read-out: VRE
Method in brief: as §1

[2] = isolate MRSA 1, 1st and 2nd replicate rows
[3] = isolate MRSA 2, 1st and 2nd replicate rows
[4] = isolate VRE 1, 1st and 2nd replicate rows
[5] = isolate VRE 2, 1st and 2nd replicate rows

MIC (μg/ml) at 24 hours, P. aeruginosa (Pseudomonas aeruginosa; 1st and 2nd replicate rows)	MIC (μg/ml) at 24 hours, E. coli (Escherichia coli; 1st and 2nd replicate rows)	MIC (μg/ml) at 24 hours, MRSA 1 (MRSA; [2])	MIC (μg/ml) at 24 hours, MRSA 2 (MRSA; [3])	MIC (μg/ml) at 24 hours, VRE 1 (VRE; [4])	MIC (μg/ml) at 24 hours, VRE 2 (VRE; [5])	MIC (μg/ml) at 24 hours, P. aeruginosa (Pseudomonas aeruginosa; P. aeruginosa, duplicate lines per compound)	MIC (μg/ml) at 24 hours, E. coli (Escherichia coli; E. coli, duplicate lines per compound)	MIC (μg/ml) at 24 hours, MRSA 1 (MRSA; MRSA 1, duplicate lines per compound)	MIC (μg/ml) at 24 hours, MRSA 2 (MRSA; MRSA 2, duplicate lines per compound)	MIC (μg/ml) at 24 hours, VRE 1 (VRE; VRE 1, duplicate lines per compound)	MIC (μg/ml) at 24 hours, VRE 2 (VRE; VRE 2, duplicate lines per compound)	MIC (MRSA)	MIC (VRE)	SMILES	M + R [1]	activity against MRSA among analogues (MRSA)	MRSA (MRSA)	activity against VRE among analogues (VRE)	VRE (VRE)
>128 µg/mL	>128 µg/mL	16 µg/mL	16 µg/mL	8 µg/mL	8 µg/mL	–	–	–	–	–	–	–	–	Cl.N=C(N/N=C/c1ccc(F)cc1)N/N=C/c1ccc(F)cc1 [NCL021]	12 µg/mL	greatest activity	16 µg/mL	greatest activity	8 µg/mL
>128 µg/mL	>128 µg/mL	32 µg/mL	32 µg/mL	32 µg/mL	32 µg/mL	–	–	–	–	–	–	–	–	COc1cccc(C=NNC(=N)NN=Cc2cccc(OC)c2)c1.Cl [NCL029]	32 µg/mL	greatest activity	32 µg/mL	greatest activity	32 µg/mL
>128 µg/mL	>128 µg/mL	16 µg/mL	16 µg/mL	8 µg/mL and 4 µg/mL	4 µg/mL	–	–	–	–	–	–	–	–	Cl.N=C(N/N=C/c1ccc(C(F)(F)F)cc1)N/N=C/c1ccc(C(F)(F)F)cc1 [NCL035]	10.5 µg/mL	greatest activity	16 µg/mL	greatest activity	5 µg/mL
>128 µg/mL	>128 µg/mL	8** μg/ml	8** μg/ml	8** μg/ml and 16** μg/ml	8** μg/ml	–	–	–	–	–	–	–	–	Cc1ccc(/C=N/NC(=N)N/N=C/c2ccc(C)cc2)cc1.Cl [NCL038]	9 µg/mL	greatest activity	8 µg/mL	greatest activity	10 µg/mL
>128 µg/mL	>128 µg/mL	8 µg/mL	8 µg/mL	8 µg/mL	8 µg/mL	–	–	–	–	–	–	–	–	Cc1cccc(C=NNC(=N)NN=Cc2cccc(C)c2)c1.Cl [NCL040]	8 µg/mL	greatest activity	8 µg/mL	greatest activity	8 µg/mL
>128 µg/mL	>128 µg/mL	4 µg/mL and 2 µg/mL	2 µg/mL and 4 µg/mL	4 µg/mL	4 µg/mL	–	–	–	–	–	–	–	–	Cl.N=C(N/N=C/c1cccc(Cl)c1)N/N=C/c1cccc(Cl)c1 [NCL054]	3.5 µg/mL	greatest activity	3 µg/mL	greatest activity	4 µg/mL
–	–	–	–	–	–	>128 µg/mL	>128 µg/mL	16 µg/mL	16 µg/mL	2 µg/mL and 1 µg/mL	8 µg/mL and 4 µg/mL	–	–	Cl.N=C(N/N=C/c1ccc(Cl)cc1)N/N=C/c1ccc(Cl)cc1Cl [NCL074]	9.875 µg/mL	greatest activity	16 µg/mL	greatest activity	3.75 µg/mL
–	–	–	–	–	–	–	–	–	–	–	–	2 µg/mL	2.5 µg/mL	Cl.N=C(NN=Cc1ccc(Cl)cc1N)NN=Cc1ccc(Cl)cc1N [NCL157, 2,2′-bis[(2-amino-4-chlorophenyl)methylene]carbonimidic Dihydrazide Hydrochloride]	2.25 µg/mL	greatest activity	–	greatest activity	–
–	–	–	–	–	–	–	–	–	–	–	–	2 µg/mL (≈ 5 µM)	4 µg/mL (≈ 9.99 µM)	Nc1nc(N/N=C/c2ccc(Cl)cc2)cc(N/N=C/c2ccc(Cl)cc2)n1 [NCL179, 4,6-bis(2-((E)-4-chlorobenzylidene)hydrazinyl)pyrimidin-2-amine]	3 µg/mL	greatest activity	–	greatest activity	–

Continued, molecule first:

SMILES	MIC (μg/ml) at 24 hours, P. aeruginosa (Pseudomonas aeruginosa; 1st and 2nd replicate rows)	MIC (μg/ml) at 24 hours, E. coli (Escherichia coli; 1st and 2nd replicate rows)	MIC (μg/ml) at 24 hours, MRSA 1 (MRSA; [2])	MIC (μg/ml) at 24 hours, MRSA 2 (MRSA; [3])	MIC (μg/ml) at 24 hours, VRE 1 (VRE; [4])	MIC (μg/ml) at 24 hours, VRE 2 (VRE; [5])	MIC (μg/ml) at 24 hours, P. aeruginosa (Pseudomonas aeruginosa; P. aeruginosa, duplicate lines per compound)	MIC (μg/ml) at 24 hours, E. coli (Escherichia coli; E. coli, duplicate lines per compound)	MIC (μg/ml) at 24 hours, MRSA 1 (MRSA; MRSA 1, duplicate lines per compound)	MIC (μg/ml) at 24 hours, MRSA 2 (MRSA; MRSA 2, duplicate lines per compound)	MIC (μg/ml) at 24 hours, VRE 1 (VRE; VRE 1, duplicate lines per compound)	MIC (μg/ml) at 24 hours, VRE 2 (VRE; VRE 2, duplicate lines per compound)	MIC (MRSA)	MIC (VRE)	M + R [1]	activity against MRSA among analogues (MRSA)	MRSA (MRSA)	activity against VRE among analogues (VRE)	VRE (VRE)
Cl.N=C(NN=Cc1cccc(F)c1)NN=Cc1cccc(F)c1 [NCL023]	>128 µg/mL	>128 µg/mL	16 µg/mL	16 µg/mL	32 µg/mL	16 µg/mL	–	–	–	–	–	–	–	–	20 µg/mL	greatest activity	16 µg/mL	greatest activity	24 µg/mL
Cc1ccccc1C=NNC(=N)NN=Cc1ccccc1C.Cl [NCL039]	>128 µg/mL and >188 µg/mL	>128 µg/mL	32 µg/mL and 64 µg/mL	32 µg/mL	32 µg/mL	8 µg/mL	–	–	–	–	–	–	–	–	30 µg/mL	greatest activity	–	greatest activity	20 µg/mL
Cl.N=C(NN=Cc1ccc(F)c(F)c1)NN=Cc1ccc(F)c(F)c1 [NCL123]	–	–	–	–	–	–	–	–	–	–	–	–	–	–	9.5 µg/mL	greatest activity	15 µg/mL	greatest activity	4 µg/mL
CC(=NNC(=N)NN=C(C)c1ccccc1)c1ccccc1.Cl [NCL143]	–	–	–	–	–	–	–	–	–	–	–	–	–	–	12 µg/mL	greatest activity	16 µg/mL	greatest activity	8 µg/mL
Cl.N=C(NN=Cc1ccc2[nH]ccc2c1)NN=Cc1ccc2[nH]ccc2c1 [NCL146]	–	–	–	–	–	–	–	–	–	–	–	–	–	–	14 µg/mL	greatest activity	12 µg/mL	greatest activity	16 µg/mL
CCC(=NNC(=N)NN=C(CC)c1ccc(Cl)cc1)c1ccc(Cl)cc1.Cl [NCL153]	–	–	–	–	–	–	–	–	–	–	–	–	–	–	16 µg/mL	greatest activity	24 µg/mL	greatest activity	8 µg/mL
C/C(=N\NC(=N)N/N=C(\C)c1ccc(Br)cc1)c1ccc(Br)cc1.Cl [NCL155]	–	–	–	–	–	–	–	–	–	–	–	–	–	–	10 µg/mL	greatest activity	8 µg/mL	greatest activity	12 µg/mL
CC/C(=N\NC(=N)N/N=C(\CC)c1ccc(Cl)cc1O)c1ccc(Cl)cc1O [NCL158]	–	–	–	–	–	–	–	–	–	–	–	–	4 µg/mL (≈ 9.47 µM)	4 µg/mL (≈ 9.47 µM)	4 µg/mL	greatest activity	–	greatest activity	–
CC(O)Nc1cc(Cl)ccc1C=NNC(=N)NN=Cc1ccc(Cl)cc1NC(C)O.Cl (stereo not drawn) [NCL168]	–	–	–	–	–	–	–	–	–	–	–	–	–	–	40 µg/mL	greatest activity	–	greatest activity	–
N=C(NN=Cc1ccc(Cl)cc1N)NN=Cc1ccc(Cl)cc1N [NCL169]	–	–	–	–	–	–	–	–	–	–	–	–	–	–	40 µg/mL	greatest activity	–	greatest activity	32 µg/mL
CC(=NNC(=N)NN=C(C)c1ccc(Cl)cc1O)c1ccc(Cl)cc1O.Cl [NCL173]	–	–	–	–	–	–	–	–	–	–	–	–	–	–	17 µg/mL	greatest activity	16 µg/mL	greatest activity	18 µg/mL
Cl.N=C(NN=Cc1ccc(Cl)cc1O)NN=Cc1ccc(Cl)cc1O [NCL174]	–	–	–	–	–	–	–	–	–	–	–	–	–	–	25 µg/mL	greatest activity	32 µg/mL	greatest activity	18 µg/mL
Cl.N=C(NN=C(CO)c1ccc(Cl)cc1)NN=C(CO)c1ccc(Cl)cc1 [NCL177]	–	–	–	–	–	–	–	–	–	–	–	–	–	–	7 µg/mL	greatest activity	8 µg/mL	greatest activity	6 µg/mL
Cl.[H]/N=C(/N)NN=C(CNN)c1ccc(Cl)cc1 [NCL190]	–	–	–	–	–	–	–	–	–	–	–	–	–	–	28 µg/mL	greatest activity	24 µg/mL	greatest activity	32 µg/mL
